Converted amounts (≈) assume the structure as drawn. Read-outs that look alike come from different tables or passages of the source.
Legend:
S. aureus = test: Time-kill test (microbial reduction); format: cell-based; details: for log reduction: from initial microbial population
Method: (§1) Time-kill test were performed to assess microbial reduction by antimicrobial agents, with and without chelators, against S. aureus, P. aeruginosa, and E. coli.
(§2) 100 μL of sample and 100 μL of bacterial suspension at 5×10^5 cells/mL was loaded into the first well of each row in a 96-well plate, mixed and after specific contact time, 10-fold serial dilutions were made using a multichannel pipette by transferring 20 μL into 180 μL of Letheen broth, mixing 10 times. The process was repeated. Thereafter, three replicates of 10 μL from each of the six selected dilutions were plated onto Tryptic Soy Agar using a 2-20 μL monochannel pipette. Plates were allowed to dry, then placed into an incubator at 35° C. for 24 hrs. Colonies (0.5-1 mm) were enumerated using a colony counter.

P. aeruginosa [1] = test: Time-kill test (microbial reduction); format: cell-based; details: for log reduction: from initial microbial population
Method: as §1, §2

E. coli [2] = test: Time-kill test (microbial reduction); format: cell-based; details: E. coil; for log reduction: from initial microbial population
Method: as §1, §2

S. epidermidis = test: Minimum Inhibitory Concentration (MIC) test, 96-well microtiter plate; format: cell-based; design: unit not given here
Method: (§3) Activities of antimicrobial compositions of the present invention were tested against a range of typical skin microorganisms in a Minimum Inhibitory Concentration (MIC) test. MICs for the organisms were determined in a standard 96-well microtiter plate assay in Brain Heart Infusion Broth (BHI) for P. acnes; Tryptic Soy Broth (TSB) for the remaining bacteria; Ushijima Broth for M. furfur; Sabouraud Dextrose Broth (SDB) for other fungi. Samples were tested in duplicate on separate plates. For bacteria and fungi plates, samples were serially diluted into double strength media on the microtiter plates. The bacterial or fungal inocula, suspended in sterile deionized water, were then added to the wells in 1:1 ratio to the medium. The final concentration of bacteria in the wells was 5×10^5 CFUs/mL, the final concentration of fungi was 5×10^4 cells or spores/mL. Plates were incubated: anaerobically at 35° C. for 7 days for P. acnes; aerobically at 35° C. for 2 days for the remaining bacteria and aerobically at 35° C. for 7 days for M. furfur; aerobically at 28° C. for 7 days for T. mentagrophytes.

T. mentagrophytes = test: as above; format: cell-based; design: unit not given here
Method: as §3

M. furfur = test: as above; format: cell-based; design: unit not given here
Method: as §3

P. aeruginosa [3] = test: as above; format: cell-based; design: unit not given here
Method: as §3

P. acnes = test: as above; format: cell-based; details: for MIC: Cutibacterium acnes
Method: as §3

E. coli [4] = test: as above; format: cell-based; details: Active ZPT alone or plus chelator or chelator + Zn(II); Molar Ratio HBED 10×, 8-HQ 5×, 8-HQ + Zn(II) 1×, 2-HPNO 10×
Method: as §3

R. subcapitata = test: as above; format: cell-based; design: unit not given here
A. brasiliensis = test: as above; format: cell-based; design: unit not given here
Method: as §3

P. faveolarum = test: as above; format: cell-based; design: unit not given here
Method: as §3

C. albicans = test: as above; format: cell-based; design: unit not given here; details: concentration of ZPT; ZPT alone or with potentiator, Molar Eq (Pot:ZPT) 10:1, 8-HQ-Zn 1:1
Method: as §3

B. subtilis = test: as above; format: cell-based; design: unit not given here
Method: as §3

C. pyrenoidosa = test: as above; format: cell-based; design: unit not given here
[5] = test system: S. aureus, P. aeruginosa, and E. coli; details: in combination with ZPT
Method: as §1, §2

A. pullulans = test: Minimum Inhibitory Concentration (MIC) test, 96-well microtiter plate; format: cell-based; design: unit not given here; details: concentration of BIT; BIT alone or with potentiator, Molar Eq (Pot:BIT) 10:1
Method: as §3

[6] = Active ZPT alone or plus chelator or chelator + Zn(II), Molar Ratio HBED 10×, 8-HQ 5×, 8-HQ + Zn(II) 1×, 2-HPNO 10×
[7] = concentration of ZPT, ZPT alone or with potentiator, Molar Eq (Pot:ZPT) 10:1, 8-HQ-Zn 1:1
[8] = concentration of BIT, BIT alone or with potentiator, Molar Eq (Pot:BIT) 10:1

Row | Molecule | log reduction (S. aureus; 4 hr contact) | log reduction (S. aureus; 8 hr contact) | CFU (P. aeruginosa [1]; 4 hr contact) | log reduction (P. aeruginosa [1]; 4 hr contact) | CFU (P. aeruginosa [1]; 8 hr contact) | log reduction (P. aeruginosa [1]; 8 hr contact) | CFU (E. coli [2]; 4 hr contact) | log reduction (E. coli [2]; 4 hr contact) | CFU (E. coli [2]; 8 hr contact) | log reduction (E. coli [2]; 8 hr contact) | MIC S. epidermidis (S. epidermidis; [6]) | MIC T. mentagrophytes (T. mentagrophytes; [6]) | MIC M. furfur (M. furfur; [6]) | MIC P. aeruginosa (P. aeruginosa [3]; [6]) | MIC E. Coli (E. coli [4]) | MIC R. subcapitata (R. subcapitata; [7]) | MIC A. brasiliensis (A. brasiliensis; [7]) | MIC P. faveolarum (P. faveolarum; [7]) | MIC S. epidermidis (S. epidermidis; [7]) | MIC T. mentagrophytes (T. mentagrophytes; [7]) | also measured
1 | Oc1cccc2cccnc12 [8-HQ, 8-hydroxyquinoline] | 1 log | 2 log | 2.6 × 10^6 CFUs/mL | 1 log | 3 × 10^5 CFUs/mL | 3 log | 8.6 × 10^5 CFUs/mL | 2 log | 1.2 × 10^6 CFUs/mL | 2 log | 0.49 | 7.81 | 1.95 | 125 | 7.81 |  |  |  |  |  | CFU (S. aureus; 4 hr contact): 1.6 × 10^5 CFUs/mL; CFU (S. aureus; 8 hr contact): 6.3 × 10^5 CFUs/mL; MIC (P. acnes; read-out: MIC values against P. acnes, Benzoyl Peroxide): 0.78 mg/L (≈ 5.37 µM); MIC (P. acnes; read-out: MIC values against P. acnes, Salicylic Acid): 0.78 mg/L (≈ 5.37 µM)
2 | Oc1cccc2cccnc12.[Zn] [8-HQ-Zn, 8-hydroxyquinoline zinc salt] |  |  |  |  |  |  |  |  |  |  | 1.95 | 3.91 | 1.95 | 31.5 | 7.81 | 1.95 | 15.63 | 0.24 | 1.95 | 3.91 | MIC M. furfur (M. furfur; [7]): 1.95; MIC P. aeruginosa (P. aeruginosa [3]; [7]): 31.25; MIC C. albicans (C. albicans): 7.81; MIC B. subtilis (B. subtilis; [7]): 0.98; MIC C. pyrenoidsa (C. pyrenoidosa; [7]): 0.73
3 | O=C(O)CN(CCN(CC(=O)O)Cc1ccccc1O)Cc1ccccc1O [HBED, N,N-bis(2-hydroxybenzyl)ethylenediamine-N,N-diacetic acid] | 1 log | 2 log | >10^7 CFUs/mL | 0 log | 1.6 × 10^5 CFUs/mL | 3 log | 8.3 × 10^5 CFUs/mL | 2 log | 1.6 × 10^6 CFUs/mL | 2 log | 0.98 | 0.49 | 3.91 | 62.5 | 15.63 |  |  |  |  |  | MIC R. subcapitata (R. subcapitata; [8]): 4.06; ranking of chelators in time-kill studies [5]: best chelator; CFU (S. aureus; 4 hr contact): 1.4 × 10^6 CFUs/mL; CFU (S. aureus; 8 hr contact): 2.3 × 10^5 CFUs/mL; MIC A. pullulans (A. pullulans): 4.06; MIC A. brasiliensis (A. brasiliensis; [8]): 32.50; MIC P. faveolarum (P. faveolarum; [8]): 4.06; MIC P. aeruginosa (P. aeruginosa [3]; [8]): 8.13; MIC B. subtilis (B. subtilis; [8]): 0.51; MIC C. pyrenoidsa (C. pyrenoidosa; [8]): 2.03; MIC values against P. acnes, Benzoyl Peroxide (P. acnes; Benzoyl Peroxide without chelator or with chelator, Molar Eq. HBED 10×, 8-HQ 5×, DTPA 10×, Desferrioxamine 1×): 3.13 ppm; MIC values against P. acnes, Salicylic Acid (P. acnes; Salicylic Acid without chelator or with chelator, Molar Eq. HBED 10×, 8-HQ 5×, DTPA 10×, Desferrioxamine 1×): 3.13 ppm
4 | O=C(O)CN(CCN(CC(=O)O)Cc1ccccc1O)Cc1ccccc1O.[Zn] [HBED-Zn] |  |  |  |  |  |  |  |  |  |  | 3.91 | 1.46 | 0.98 | 15.63 | 3.91 | 0.49 | 7.81 | 0.24 | 3.91 | 1.46 | MIC M. furfur (M. furfur; [7]): 0.98; MIC P. aeruginosa (P. aeruginosa [3]; [7]): 15.63; MIC C. albicans (C. albicans): 3.91; MIC B. subtilis (B. subtilis; [7]): 1.95; MIC C. pyrenoidsa (C. pyrenoidosa; [7]): 0.98
5 | zinc pyrithione [ZPT] | 1 log | 2 log | 7.3 × 10^6 CFUs/mL | 1 log | 6.3 × 10^6 CFUs/mL | 2 log | >10^7 CFUs/mL | 0 log | >10^7 CFUs/mL | 0 log | 1.95-7.8 | 3.91-5 | 1.25-1.95 | 31.25-62.5 | 1.95-7.81 | 1.95-4 | 7.81-15.6 | 0.05-2 | 1.95-7.8 | 3.91-8 | MIC M. furfur (M. furfur; [7]): 0.98-4; MIC P. aeruginosa (P. aeruginosa [3]; [7]): 31-62; MIC C. albicans (C. albicans): 7.81; MIC B. subtilis (B. subtilis; [7]): 1.95-4; MIC C. pyrenoidsa (C. pyrenoidosa; [7]): 0.24-4

— patent US10433548B2, “Biocidal compositions comprising iron chelators” (Arch Chemicals, Inc., priority 2012, dated 2019)
